Read-outs that look alike come from different tables or passages of the source.
What was measured:
OR8/OR7 = OR8/OR7 (Anopheles gambiae, UniProt Q7PUT5+Q7QCC7); test: Ca2+-imaging of stable HEK293T cell line OR8/OR7; type: cell-based; settings: for inhibition at 4 µM: HEK-293T, read-out: Percent Inhibition OR8 OR7
Method: Full-length cDNAs for mosquito (Anopheles gambiae) odorant receptor (OR1, OR2, OR7, OR8, OR28), and fly (Drosophila melanogaster) odorant receptor (Or47a, Or83b), mouse TRP channel (TRPM8), and mouse serotonin receptor (5HT3) were obtained and subcloned into mammalian expression vectors. The following mammalian expression vectors were used:
Stable cell lines OR1/OR7, OR2/OR7, OR8/OR7, OR10/OR7, OR28/OR7 and TRPM8 were generated from HEK293T cells. HEK293T-based cell lines were cultured in DMEM supplemented with these additional antibiotics: 6 μg/mL blasticidin and 1 μg/mL puromycin, with the exception of the TRPM8 cell lines, which was cultured in DMEM supplemented with 1 μg/mL puromycin.
Cells were trypsinized and split into 35 mm dishes one day before transfection. Confluent cells (60-70%) in 35 mm dishes were transfected with 1 μg of insect OR(X) plasmids in pME18s-bla and 1 μg of OR7-pME18s-puro using lipofectamine 2000. For Anopheles odorant receptors, two plasmids were co-transfected into HEK cells: the ligand-specific receptor (OR1, OR2, OR8, OR28) and the corresponding olfactory co-receptor: OR7. Cell lines containing TRPM8 were transfected with single plasmid.
(§1) Stable cell lines were cultured in 10 cm dishes, and confluent cells (70-80%) were trypsinized. 10,000 cells/20 μL were transferred into each well of 384-well plates coated with poly-D-lysine, and cultured for 2 days. For Flip-In T-Rex cells (cell lines expressing Or47a/Or83b and 5HT3), 5 μL of tetracycline (5 μg/mL) were added 1 day before the assay. 20 μL of Ca-4 dye was loaded into each well for 1.5 hr at room temperature in the dark, and the dye-loaded plates were subjected to Ca^2+-imaging using a Hamamatsu FDSS6000 real time fluorescence plate reader. Odorant solutions (9× final concentration) were prepared by dissolving 1M stock solutions into Hank's Buffered Salt Solution (HBSS), and 30 μL of odor solution was transferred to each well in 384-well plates.
(§2) Compounds ([…] in DMSO) were stored in 384-well plates, and last two columns (32 wells total) contained only DMSO. 200 nL of small compounds were transferred into the odorant plates before the assay using the Perkin-Elmer Janus workstation. The odorant plates were spun down to remove air bubbles, and placed on the FDSS6000 plate loader, and 5 μL of odorant solution was applied to the cell plate on the FDSS6000. Ca^2+ increase was monitored with fluorescence at 525 nm by excitation at 485 nm.

mOREG = target: T1, mOREG (Mus musculus, UniProt Q920P2); test: Ca2+-imaging, control receptor mOREG; type: cell-based; settings: for inhibition at 4 µM: read-out: Percent Inhibition mOREG
T1 sequence (Q920P2 1-313): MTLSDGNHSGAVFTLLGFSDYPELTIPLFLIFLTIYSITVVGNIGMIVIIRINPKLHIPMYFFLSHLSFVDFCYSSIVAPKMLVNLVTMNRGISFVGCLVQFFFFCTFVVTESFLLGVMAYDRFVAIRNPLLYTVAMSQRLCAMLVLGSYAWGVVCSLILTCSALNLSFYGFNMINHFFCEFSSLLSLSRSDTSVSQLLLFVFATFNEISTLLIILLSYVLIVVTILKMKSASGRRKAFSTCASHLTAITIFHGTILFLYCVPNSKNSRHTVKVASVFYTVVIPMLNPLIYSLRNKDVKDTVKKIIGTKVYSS
Method: as §1, with “plates. The last two columns of the plate (32 wells total) were used as control wells as follows: • negative control with HBSS buffer (16 wells) • positive control with ligands (16 wells).” for “plates.”
as §2

[1] = ligand 1-octen-3-ol 30 μM, read-out: IC50 OR8 OR7

Sequence of OR8/OR7 (Q7QCC7 whole entry): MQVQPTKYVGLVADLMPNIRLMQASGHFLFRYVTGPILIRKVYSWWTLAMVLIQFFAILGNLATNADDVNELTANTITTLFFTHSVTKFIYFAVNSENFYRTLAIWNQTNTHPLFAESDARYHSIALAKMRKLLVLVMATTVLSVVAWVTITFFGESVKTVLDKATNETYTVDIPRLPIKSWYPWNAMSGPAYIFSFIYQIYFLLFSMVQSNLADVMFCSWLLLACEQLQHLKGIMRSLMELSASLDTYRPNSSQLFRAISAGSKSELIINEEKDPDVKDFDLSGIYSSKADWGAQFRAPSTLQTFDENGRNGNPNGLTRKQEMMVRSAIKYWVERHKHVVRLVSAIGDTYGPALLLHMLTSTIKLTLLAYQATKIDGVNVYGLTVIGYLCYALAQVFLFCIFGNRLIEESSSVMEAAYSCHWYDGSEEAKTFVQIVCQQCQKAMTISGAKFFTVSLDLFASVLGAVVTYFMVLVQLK
Sequence of OR8/OR7 (Q7PUT5 entry or part of it): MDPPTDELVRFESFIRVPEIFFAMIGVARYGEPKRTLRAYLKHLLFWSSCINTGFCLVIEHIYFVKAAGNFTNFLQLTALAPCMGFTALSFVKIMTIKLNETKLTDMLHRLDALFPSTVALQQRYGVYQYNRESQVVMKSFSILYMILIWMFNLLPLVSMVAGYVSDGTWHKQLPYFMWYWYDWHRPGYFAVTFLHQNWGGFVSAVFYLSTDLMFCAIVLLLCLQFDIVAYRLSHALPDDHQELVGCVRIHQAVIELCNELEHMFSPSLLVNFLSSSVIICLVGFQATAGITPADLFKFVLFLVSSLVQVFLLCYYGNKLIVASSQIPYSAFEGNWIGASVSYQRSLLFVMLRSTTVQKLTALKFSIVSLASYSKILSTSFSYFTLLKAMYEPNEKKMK

Compound	inhibition at 4 µM (OR8/OR7; compound applied at 4 μM)	inhibition at 4 µM (mOREG; compound applied at 4 μM)	other results
C=CCN(Cc1nccn1Cc1ccccc1F)C(=O)C1CCCC1 [RU-0058964]	26 to 50%	26 to 50%	
Cc1ccc(-c2nnc(SCCCC(=O)N3CCN(C(=O)c4cccc(F)c4)C(C)C3)n2-c2ccc(C)cc2)cc1 (stereo not drawn) [RU-0071789]	< 25%	26 to 50%	
COc1ccccc1CC(=O)N1CCOC(COc2ccc(C)cc2)C1 (stereo not drawn) [RU-0050390]	< 25%	< 25%	
CCN(CC)c1onc(-c2ccccc2)c1CN(CC1CCCO1)C(=O)c1ccco1 (stereo not drawn) [RU-0036855]	26 to 50%	26 to 50%	
Cc1cccc(NC(=O)CCC2CCN(C(=O)CCOc3ccccc3)CC2)c1 [RU-0030324]	26 to 50%	51 to 74%	IC50 (mOREG; Table B): > 1000 nM
CCNc1nc(Cl)nc(NC(C)C)n1 [RU-T5]			IC50 (OR8/OR7): < 2000 nM
O=C(C1CCCC1)N(Cc1nccn1CCc1c(F)cccc1Cl)C1CC1 [RU-I2]			IC50 (OR8/OR7; [1]): 2000 to 20000 nM
c1ccc(CNc2nc(NCc3ccco3)nc(N3CCOCC3)n2)cc1 [RU-0020050]	> 75%	26 to 50%	IC50 (OR8/OR7; Table B, read-out: IC50 OR8): > 1000 nM
O=C(C1CCC1)N(Cc1ccco1)Cc1nccn1Cc1ccccc1Cl [RU-0048066]	< 25%	< 25%	
COCCNC(=O)c1ccc(CSc2nnc(-c3ccc(C)cc3)n2-c2ccccc2C)cc1 [RU-0053556]	26 to 50%	26 to 50%	
O=C(NCCC(=O)N1CCOC(COCc2ccc(F)cc2Cl)C1)OCc1ccccc1 (stereo not drawn) [RU-0050344]	26 to 50%	26 to 50%	
CCNc1nc(NCC)nc(SC)n1 [RU-T4]			IC50 (OR8/OR7): 2000 to 20000 nM
CC(=O)OCC(=O)NCC1Cc2cc(Oc3ccccc3)ccc2O1 (stereo not drawn) [RU-0079120]	< 25%	< 25%	
CCNc1nc(NC(C)C)nc(N(C#N)Cc2ccccc2)n1 [RU-0015806]	< 25%	< 25%	
CCNc1nc(NC(C)C)nc(SC)n1 [RU-T3]			IC50 (OR8/OR7): 2000 to 20000 nM
Cc1c(C(=O)NCc2ccco2)cnn1-c1ccccc1 [RU-0047765]	< 25%	< 25%	
CC(C)Nc1nc(Cl)nc(NCc2ccccc2)n1 [RU-T9]			IC50 (OR8/OR7): > 220000 nM
Cc1ccccc1C(=O)N[C@@H]1CCCCC1NC(=O)C1CCN(C(=O)C23CC4CC(CC(C4)C2)C3)CC1 (stereo partly drawn) [RU-0045351]	< 25%	26 to 50%	
COc1ccccc1CCC(=O)N1CCC(CCC(=O)Nc2ccccc2)CC1 [RU-0032455]	26 to 50%	26 to 50%	
Cc1cc(N(C)C2CCCCC2)nc(SCc2cccc(C(=O)N3CCCC3)c2)n1 [RU-0034108]	< 25%	< 25%	
CSc1nc(NC(C)C)nc(NC(C)C)n1 [RU-T2]			IC50 (OR8/OR7): < 2000 nM
C=CCNC(=O)C(NC(=O)c1cccc(C)c1)C1CCN(C(=O)c2cccc(Br)c2)CC1 (stereo not drawn) [RU-0039123]	26 to 50%	26 to 50%	
CCN(CC)C(=O)Oc1ccc2c(ccn2Cc2ccc(Cl)cc2)c1NC(=O)C1CC1 [RU-0075475]			inhibition at 4 µM (OR8/OR7): < 25%; inhibition at 4 µM (mOREG): < 25%
CN(Cc1nccn1Cc1c(F)cccc1Cl)C(=O)C1CCCC1 [RU-I5]			IC50 (OR8/OR7; [1]): 2000 to 20000 nM
O=C(c1nccn1Cc1c(F)cccc1Cl)N(CC1CCCC1)C1CC1 [RU-I3]			IC50 (OR8/OR7; [1]): < 2000 nM
C=CCN(Cc1nccn1Cc1cccc(F)c1)C(=O)c1ccccc1F [RU-I1]			IC50 (OR8/OR7; [1]): 20000 to 50000 nM

Source: US20130324522A1, “INSECT ODORANT RECEPTOR ANTAGONISTS” (THE ROCKEFELLER UNIVERSITY, priority 2010, published 2013)
